From patent US10143642B2, “Sunscreen molecule and compositions thereof” (Conopco, Inc., priority 2013, dated 2018)

Assay: Stability of sunscreen actives on HPTLC plates exposed to UV radiation (densitometry)
Assay type: physicochemical
Conditions: HPTLC plate, densitometry scan at 357 nm; for % active, 0 hr: UV radiation 5.5 mW/cm^2, 0 hr exposure; for % active, 1 hr: UV radiation 5.5 mW/cm^2, 1 hr exposure; for % active, 2 hr: UV radiation 5.5 mW/cm^2, 2 hr exposure
Procedure: Sunscreen actives singly or as combinations as shown in Table-1 were checked for stability using the following procedure:
The method was based on spotting the HPTLC plates (in duplicate) with the sunscreen molecules of interest along with potential quencher molecules or formulations. The plate is then exposed to UV radiation (intensity 5.5 mW/cm^2) for 120 minutes. Following this the chromatographic separation was carried out using appropriate solvent system. Densitometry analysis is done to determine the amount of sunscreen degraded. Stock solutions were prepared in methanol following the ratios as mentioned in the following table. 14 μL of stock solutions were loaded (3 mm width; 16 mm separation) on a 10×10 cm F254 HPTLC plate, using CAMAG LINOMAT 5 applicator equipped with a 100 μL micro-syringe (Hamilton, Switzerland). Ascending chromatography was performed at a distance of 85 mm in a TLC chamber using n-hexane-ethyl acetate 9:1 (v/v) as the mobile phase (˜10 mL). The plates were dried at room temperature and subjected to ultraviolet absorption densitometry scan. The concentration dependent fluorescent bands due to presence of sunscreens were detected with a linear scan at 357 nm, using Camag TLC Scanner 3, in the presence of deuterium source. Slit width of 8×0.4 mm and scanning rate of 20 mm s^−1 were maintained during each densitometry scan. Concentrations of Parsol 1789 & the compound of present invention on each lane were determined from densitogram peak areas; prior and after the sun exposure using Win CATS Planar chromatography manager software.

Structure (SMILES) | % active, 0 hr [%] | % active, 1 hr [%] | % active, 2 hr [%]
COc1ccc(/C(O)=C/C(=O)c2ccc(C(C)(C)C)cc2)cc1 [Example 1, Parsol 1789] | 100 | 28 | 5
COC(=O)CCC(C)C1CCC2C3C(OC(=O)COc4ccc(C(=O)/C=C(\O)c5ccc(C(C)(C)C)cc5)cc4)C[C@@H]4CC(OC(=O)C(C#N)=C(c5ccccc5)c5ccccc5)CCC4(C)C3CCC12C (stereo partly drawn) [Example 5, UVB & UVA modified methyl ester of chenodeoxy cholic acid] | 100 | 93 | 86
